Measurements as given in patent publication US5336673A, “3-substituted cephem compounds” (priority 1990, dated 1994).
In brackets after ≈: the same amount, converted by molar mass.

How the values were obtained:
[1] = tested on: enterobacteria; conditions: against the enterobacteria; cited from earlier work
[2] = biological target: T1, β-lactamase from Citrobacter freundii (Citrobacter freundii, UniProt P05193); assay: Stability against β-lactamase, relative hydrolysis; assay type: biochemical; conditions: Citrobacter freundii enzyme; 100 μM; relative(percentage), Cephaloridine taken as 100; OD at 260 nm
T1 construct: directly isolated from Enterobacter cloacae P99, E. coli TEM and Citrobacter freundii; endogenous in cells
T1 sequence (P05193 21-381): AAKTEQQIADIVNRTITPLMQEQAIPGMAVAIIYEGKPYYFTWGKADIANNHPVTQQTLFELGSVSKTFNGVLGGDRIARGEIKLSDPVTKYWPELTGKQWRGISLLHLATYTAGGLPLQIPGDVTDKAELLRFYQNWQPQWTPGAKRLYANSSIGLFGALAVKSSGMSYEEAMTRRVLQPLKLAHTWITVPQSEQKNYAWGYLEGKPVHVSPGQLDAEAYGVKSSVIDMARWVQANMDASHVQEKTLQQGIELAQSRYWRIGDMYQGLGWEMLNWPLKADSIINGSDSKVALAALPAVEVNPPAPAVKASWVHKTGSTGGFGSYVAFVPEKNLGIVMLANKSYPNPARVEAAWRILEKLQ
Procedure: (§1) In order to establish the usefulness in clinical applications of the compounds provided by the invention, the compound of Example 18 was tested for stability against the β-lactamase and for antibacterial activity on systemic infection model.
(§2) First, the stability against the β-lactamase was tested by determining the relative(percentage) hydrolysis of the compound of Example 18, relative to that of Cephaloridine, taking the absolute rate of Cephaloridine as 100.
(§3) The β-lactamases employed in the test were directly isolated from Enterobacter cloacae P99, E. coli TEM and Citrobacter freundii, and the antibiotics for comparison were Cephaloridine, Cephradine, Cefoperazone and Cefotaxime.
(§4) Cephaloridine, other known antibiotics and the compound of Example 18 were reacted with each of the enzymes isolated from the strains and the OD were determined at 260 nm, λmax of Cephaloridine. The relative hydrolysis of various compounds were calculated relative to the OD of Cephaloridine.

[3] = biological target: T2, β-lactamase from E. coli TEM (Escherichia coli, UniProt P62593); assay: Stability against β-lactamase, relative hydrolysis; assay type: biochemical; conditions: E. coli TEM enzyme; 100 μM; relative(percentage), Cephaloridine taken as 100; OD at 260 nm
T2 construct: directly isolated from Enterobacter cloacae P99, E. coli TEM and Citrobacter freundii; endogenous in cells; host or cells: E. coli TEM (plasmid-carried enzyme of the strain)
T2 sequence (P62593 24-286 limits assumed): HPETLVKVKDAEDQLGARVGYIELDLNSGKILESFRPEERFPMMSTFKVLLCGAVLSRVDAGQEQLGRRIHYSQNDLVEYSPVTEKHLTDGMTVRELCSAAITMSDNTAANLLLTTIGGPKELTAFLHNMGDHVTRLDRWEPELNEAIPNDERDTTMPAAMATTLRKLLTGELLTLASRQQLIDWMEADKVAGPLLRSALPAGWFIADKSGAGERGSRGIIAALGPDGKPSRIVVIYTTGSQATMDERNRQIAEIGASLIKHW
Procedure: as §1, §2, §3, §4

[4] = tested on: Streptococcus pyogenes A 308; assay: Antibacterial activity, MIC by Agar dilution method, standard test strain 1; assay type: cell-based; conditions: A308, 10^7 CFU/ml, 37° C., 18 hours
Procedure: (§5) The antibacterial activity was determined by an Agar dilution method as described below.
(§6) That is, the two-fold serial dilutions of the antibacterial compounds (1000 μg compound/ml) were prepared and dispersed in Muller Hinton Agar in a petri dish to a concentration of 100~0.002 μg/ml. The culture broths of standard test strains were inoculated on the medium to a concentration 10^7 CFU/ml, and incubated at 37° C. for 18 hours. The concentration of compounds(I) at which the strains were not grown was regarded as minimum inhibition concentration (MIC).
(§7) The results of antibacterial activity test of the representative examples of the compound (I) against 20 standard test strains shown in terms of MIC were indicated in Table 1.
1. Streptococcus pyogenes A 308

[5] = tested on: Streptococcus pyogenes A 77; assay: Antibacterial activity, MIC by Agar dilution method, standard test strain 2; assay type: cell-based; conditions: A77, 10^7 CFU/ml, 37° C., 18 hours
Procedure: as §5, §6, §7
2. Streptococcus pyogenes A 77

[6] = tested on: Streptococcus faecium MD 86; assay: Antibacterial activity, MIC by Agar dilution method, standard test strain 3; assay type: cell-based; conditions: Enterococcus faecium, MD86, 10^7 CFU/ml, 37° C., 18 hours
Procedure: as §5, §6, §7
3. Streptococcus faecium MD 86

[7] = tested on: Staphylococcus aureus SG 511; assay: Antibacterial activity, MIC by Agar dilution method, standard test strain 4; assay type: cell-based; conditions: SG511, 10^7 CFU/ml, 37° C., 18 hours
Procedure: as §5, §6, §7
4. Staphylococcus aureus SG 511

[8] = tested on: Staphyloccus aureus 285; assay: Antibacterial activity, MIC by Agar dilution method, standard test strain 5; assay type: cell-based; conditions: 10^7 CFU/ml, 37° C., 18 hours
Procedure: as §5, §6, §7
5. Staphyloccus aureus 285

[9] = tested on: Staphylococcus aureus 503; assay: Antibacterial activity, MIC by Agar dilution method, standard test strain 6; assay type: cell-based; conditions: 10^7 CFU/ml, 37° C., 18 hours
Procedure: as §5, §6, §7
6. Staphylococcus aureus 503

[10] = tested on: Escherichia coli O 55; assay: Antibacterial activity, MIC by Agar dilution method, standard test strain 7; assay type: cell-based; conditions: O55; Escherichia coli O 55; 10^7 CFU/ml, 37° C., 18 hours; read-out: MIC
Procedure: as §5, §6, §7

[11] = tested on: Escherichia coli DC O; assay: Antibacterial activity, MIC by Agar dilution method, standard test strain 8; assay type: cell-based; conditions: Escherichia coli DC O; 10^7 CFU/ml, 37° C., 18 hours; read-out: MIC
Procedure: as §5, §6, §7

[12] = tested on: Escherichia coli DC 2; assay: Antibacterial activity, MIC by Agar dilution method, standard test strain 9; assay type: cell-based; conditions: Escherichia coli, DC2, 18 h
Procedure: as §5, §6, §7

[13] = tested on: Escherichia coli TEM; assay: Antibacterial activity, MIC by Agar dilution method, standard test strain 10; assay type: cell-based; conditions: Escherichia coli TEM; 10^7 CFU/ml, 37° C., 18 hours; read-out: MIC
Procedure: as §5, §6, §7

[14] = tested on: Escherichia coli 1507E; assay: Antibacterial activity, MIC by Agar dilution method, standard test strain 11; assay type: cell-based; conditions: Escherichia coli 1507E; 10^7 CFU/ml, 37° C., 18 hours; read-out: MIC
Procedure: as §5, §6, §7

[15] = tested on: Pseudomonas aeruginosa 9027; assay: Antibacterial activity, MIC by Agar dilution method, standard test strain 12; assay type: cell-based; conditions: 10^7 CFU/ml, 37° C., 18 hours
Procedure: as §5, §6, §7
12. Pseudomonas aeruginosa 9027

[16] = tested on: Pseudomonas aeruginosa 1592E; assay: Antibacterial activity, MIC by Agar dilution method, standard test strain 13; assay type: cell-based; conditions: 10^7 CFU/ml, 37° C., 18 hours
Procedure: as §5, §6, §7
13. Pseudomonas aeruginosa 1592E

[17] = tested on: Pseudomonas aeruginosa 1771; assay: Antibacterial activity, MIC by Agar dilution method, standard test strain 14; assay type: cell-based; conditions: 10^7 CFU/ml, 37° C., 18 hours
Procedure: as §5, §6, §7
14. Pseudomonas aeruginosa 1771

[18] = tested on: Pseudomonas aeruginosa 1771M; assay: Antibacterial activity, MIC by Agar dilution method, standard test strain 15; assay type: cell-based; conditions: 18 h
Procedure: as §5, §6, §7
15. Pseudomonas aeruginosa 1771M

[19] = tested on: Salmonella typhimurium; assay: Antibacterial activity, MIC by Agar dilution method, standard test strain 16; assay type: cell-based; conditions: Salmonella enterica, 10^7 CFU/ml, 37° C., 18 hours
Procedure: as §5, §6, §7
16. Salmonella typhimurium

[20] = tested on: Klebsiella oxytoca 1082E; assay: Antibacterial activity, MIC by Agar dilution method, standard test strain 17; assay type: cell-based; conditions: 10^7 CFU/ml, 37° C., 18 hours
Procedure: as §5, §6, §7

[21] = tested on: Klebsiella aerogenes 1522E; assay: Antibacterial activity, MIC by Agar dilution method, standard test strain 18; assay type: cell-based; conditions: Klebsiella aerogenes 1522E; 10^7 CFU/ml, 37° C., 18 hours; read-out: MIC
Procedure: as §5, §6, §7
18. Klebsiella aerogenes 1522E

[22] = tested on: Enterobacter cloacae P99; assay: Antibacterial activity, MIC by Agar dilution method, standard test strain 19; assay type: cell-based; conditions: P99, 18 h
Procedure: as §5, §6, §7
19. Enterobacter cloacae P99

[23] = tested on: Enterobacter cloacae 1321E; assay: Antibacterial activity, MIC by Agar dilution method, standard test strain 20; assay type: cell-based; conditions: Enterobacter cloacae 1321E; 10^7 CFU/ml, 37° C., 18 hours; read-out: MIC
Procedure: as §5, §6, §7
20. Enterobacter cloacae 1321E

[24] = biological target: T3, β-lactamase from Enterobacter cloacae P99 (Enterobacter cloacae, UniProt P05364); assay: Stability against β-lactamase, relative hydrolysis; assay type: biochemical; conditions: Enterobacter cloacae P99 enzyme; 100 μM; relative(percentage), Cephaloridine taken as 100; OD at 260 nm
T3 construct: directly isolated from Enterobacter cloacae P99, E. coli TEM and Citrobacter freundii; endogenous in cells; host or cells: Enterobacter cloacae P99
T3 sequence (P05364 21-381): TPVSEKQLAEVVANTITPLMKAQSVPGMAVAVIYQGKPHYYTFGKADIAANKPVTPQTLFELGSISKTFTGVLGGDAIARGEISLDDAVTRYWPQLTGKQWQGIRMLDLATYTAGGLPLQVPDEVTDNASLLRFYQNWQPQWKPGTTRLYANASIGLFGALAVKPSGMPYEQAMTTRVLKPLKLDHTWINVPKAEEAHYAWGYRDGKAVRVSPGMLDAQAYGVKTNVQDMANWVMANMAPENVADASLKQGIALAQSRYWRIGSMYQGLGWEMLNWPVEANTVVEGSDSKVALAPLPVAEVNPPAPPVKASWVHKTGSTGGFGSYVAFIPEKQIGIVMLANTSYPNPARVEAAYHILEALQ
Procedure: as §3
The relative hydrolysis of various compounds were calculated relative to the OD of Cephaloridine.

[25] = tested on: Staphylococcus; conditions: against Staphylococcus; cited from earlier work
[26] = tested on: Pseudomonas; conditions: against Pseudomonas, compared with other known cephalosporins; cited from earlier work

In the case of `CO/N=C(\C(=O)N[C@@H]1C(=O)N2C(C(=O)O)=C(CSc3nnnn3C)CS[C@H]12)c1csc(N)n1` [Cefmenoxime], the “antibacterial activity (in words)” value [1] is given as “strong antibacterial activities”.

With `CCN1CCN(C(=O)N[C@@H](C(=O)N[C@@H]2C(=O)N3C(C(=O)O)=C(CSc4nnnn4C)CS[C@H]23)c2ccc(O)cc2)C(=O)C1=O` [Cefoperazone] the “Relative hydrolysis by β-lactamase” value [2] was 1.2 and the “Relative hydrolysis by β-lactamase” value [3] was 38.6.

With `CO/N=C(\C(=O)N[C@@H]1C(=O)N2C(C(=O)O)=C(COC(C)=O)CS[C@H]12)c1csc(N)n1` [Cefotaxime, reference compound] the MIC [4] was 0.007 µg/mL (≈ 0.0154 µM), the MIC [5] was 0.004 µg/mL (≈ 0.00878 µM) and the MIC [6] was 100 µg/mL (≈ 220 µM). It also gave an MIC [7] of 1.56 µg/mL (≈ 3.43 µM), an MIC [8] of 1.56 µg/mL (≈ 3.43 µM) and an MIC [9] of 0.781 µg/mL (≈ 1.71 µM). For the same compound, the MIC [10] was 0.007 µg/mL (≈ 0.0154 µM), the MIC [11] was 0.025 µg/mL (≈ 0.0549 µM) and the MIC [12] was 0.013 µg/mL (≈ 0.0285 µM). The MIC [13] was 0.025 µg/mL (≈ 0.0549 µM), the MIC [14] was 0.025 µg/mL (≈ 0.0549 µM) and the MIC [15] was 12.5 µg/mL (≈ 27.4 µM). The MIC [16] was 12.5 µg/mL (≈ 27.4 µM), the MIC [17] was 6.25 µg/mL (≈ 13.7 µM) and the MIC [18] was 0.098 µg/mL (≈ 0.215 µM). For the same compound, the MIC [19] was 0.025 µg/mL (≈ 0.0549 µM), the MIC [20] was 0.781 µg/mL (≈ 1.71 µM) and the MIC [21] was 0.013 µg/mL (≈ 0.0285 µM). For the same compound, the MIC [22] was 100 µg/mL (≈ 220 µM), the MIC [23] was 0.013 µg/mL (≈ 0.0285 µM) and the “Relative hydrolysis by β-lactamase” value [24] was 0.0. For the same compound, the “Relative hydrolysis by β-lactamase” value [2] was 0.6, the “Relative hydrolysis by β-lactamase” value [3] was 0.6 and the “antibacterial activity (in words)” value [1] was “strong antibacterial activities”.

In the case of `CC(C)(O/N=C(\C(=O)N[C@@H]1C(=O)N2C(C(=O)[O-])=C(C[n+]3ccccc3)CS[C@H]12)c1csc(N)n1)C(=O)O` [Ceftazidime], the “antibacterial activity (in words)” value [25] is given as “poor antibacterial activity”, the “antibacterial activity (in words)” value [26] is given as “relatively stronger” and the “antibacterial activity (in words)” value [1] is given as “strong antibacterial activities”.

For `CO/N=C(\C(=O)N[C@@H]1C(=O)N2C(C(=O)O)=C(CSc3nc(=O)c(=O)[nH]n3C)CS[C@H]12)c1csc(N)n1` [Ceftriaxone], the “antibacterial activity (in words)” value [1] is listed as “strong antibacterial activities”.

In the case of `O=C(Cc1cccs1)N[C@@H]1C(=O)N2C(C(=O)[O-])=C(C[n+]3ccccc3)CS[C@H]12` [Cephaloridine], the “Relative hydrolysis by β-lactamase” value [24] was 100, the “Relative hydrolysis by β-lactamase” value [2] was 100 and the “Relative hydrolysis by β-lactamase” value [3] was 100.

In the case of `CC1=C(C(=O)O)N2C(=O)[C@@H](NC(=O)[C@H](N)C3=CCC=CC3)[C@H]2SC1` [Cephradine], the “Relative hydrolysis by β-lactamase” value [24] was 14.9, the “Relative hydrolysis by β-lactamase” value [2] was 13.6 and the “Relative hydrolysis by β-lactamase” value [3] was 0.8.
